Results taken from patent publication US12703728B2, “Interleukin 29 mutant protein” (priority 2020, dated 2026).
Residue numbers refer to the chain shown, from its start. Like-named read-outs stand apart in the source and are kept apart here.

Columns and labels:
[1] = system: respiratory syncytial virus; test: In vitro efficacy on RSV-infected human bronchial epithelial cells (HBEC); assay type: cell-based; conditions: for Average inhibition rate (%): HBEC, RSV
Description: RSV with a titer of 100, TCID50 (half of the infective dose of tissue culture) was added to each of the activity test wells, culturing the cells in 37° C. and 5% CO2 incubator for 3 days, then RSV RNA was extracted from the cells by using the RNA Extraction Kit (Catlog: 74181, Qiagen), and quantified by RT-qPCR.

Vero cells = test: Toxic effects on Vero cells by CCK-8 assay; conditions: 50 μmol/L and below, 48 h, CCK-8
[2] = Toxic effects on Vero cells by CCK-8 assay; conditions: African green monkey, Vero cells
novel coronavirus = test: organism not typed; assay type: cell-based, African green monkey
HEK293-ISRE-Luc cells = assay type: cell-based; conditions: for EC50: HEK293-ISRE-Luc reporter gene method; for EC50/biological activity as compared with IL29 control (in words): reporter gene method
From the text: The reporter gene method refers to ligating the promoter of interferon-stimulated response element (ISRE) to alkaline phosphatase cDNA, and transfecting them into HEK293 cells, and evaluating IL29 activity by measuring alkaline phosphatase in supernatant of HEK293 cells after IL29 stimulation (LaFleur D W, Nardelli B, Tsareva T Et al. Interferon-kappa, a novel type I interferon expressed in human keratinocytes. [J]. J. Biol. Chem., 2001, 276:39765-71).
HEK293-ISRE-Luc cells (purchased from National institutes for Food and Drug Control) were allowed to grow adherently in complete culture medium. The cells were passaged at a ratio of 1:4, 2-3 times per week, growing in complete culture medium. The cultured cells were taken to discard the culture medium, and the cells were washed once with PBS and then digested and collected; and the cell suspension containing 3.5×10^5 to 4.5×10^5 cells per 1 ml was prepared with assay culture medium (BIBCO).

[3] = Stability of IL29 mutants at 50° C.; assay type: physicochemical; conditions: 50° C./75% relative humidity; for Reduction on Day 14 as compared with Point 0 (%): reversed-phase HPLC main peak
Description: (§1) The mobile phase A (acetonitrile:water:trifluoroacetic acid, in the volume ratio of 20:80:0.1) and the mobile phase B (acetonitrile:water:isopropanol:trifluoroacetic acid, in the volume ratio of 70:20:10:0.1) were prepared; and a chromatographic column (XBridge BEH C18 Column, 130A, 5 μm, 4.6 mm*100 mm) was used to analyze each test sample of proteins. The analytical conditions were as follows: flow rate 1.0 ml/min, acquisition time: 65 min, acquisition wavelength 214 nm, column temperature 45° C., and elution gradient as shown in Table 1 below.
Two injections of stock solution of a test sample were loaded in parallel, and the loading volume was set as15 μg-20 μg according to the sample concentration; finally, the purity of the main peak of the test sample was calculated by integrating according to the area normalization method.
The details are shown in Table 5, while the purity values at day 0 and 14 in Table 5 were used to make contrast chromatogram, as shown in FIGS. 3-10.

[4] = Stability of IL29 mutants at 50° C.; assay type: physicochemical; conditions: 50° C./75% relative humidity, reporter gene method
[5] = Nebulization stability test
Description: A jet nebulizer of PARI LCD type and TurboBOY N nebulizer pump from Germany were used for nebulization tests. 2 ml of sample was nebulized, and aerosol was collected in the manner below according to FIG. 11; as for the collected sample, the purity of each test sample of IL29 mutants was detected according to the same method as in Example 2.2.1 by reversed-phase high performance liquid phase, thereby verifying the nebulization stability of each mutant.

[6] = assay type: physicochemical; conditions: 25° C./60% relative humidity/5000 lux
Description: as §1
The mobile phase A (25 mmol/L phosphate buffer, pH 7.0) and mobile phase B (25 mmol/L phosphate buffer, 0.5 mol/L sodium chloride, pH 6.7) were prepared, and a chromatographic column (Thermo ProPac WCX-10 4.0*250 mm) was used to analyze each test sample of proteins. The analytical conditions were as follows: flow rate 0.8 ml/min, acquisition time: 55 min, acquisition wavelength 214 nm, column temperature 25° C., and elution gradient as shown in Table 2 below.
The stability of IL29 mutants was detected under the condition 25° C.±2° C./60% relative humidity ±5% relative humidity/5000±500 lux, samples were taken according to Table 6, and the same method in Example 2 was used to detect the stability of IL29 mutants.

[7] = Positive control group, 0.03 μM

Molecule: O=c1n(Cc2nc3ccccc3n2CCCCO)c2cnccc2n1C1CC1 [BMS-433771]
- EC50 ([1]; HBEC cell model, RSV RNA by RT-qPCR): 213 nM
- Average inhibition rate (%) ([1]; 10 nM): 31.65%
- Average inhibition rate (%) ([1]; 50 nM): 29.30%
- Average inhibition rate (%) ([1]; 250 nM): 85.31%
- Average inhibition rate (%) ([1]; 1250 nM): 97.91%

Molecule: CCC(CC)COC(=O)[C@H](C)N[P@](=O)(OC[C@H]1O[C@@](C#N)(c2ccc3c(N)ncnn23)[C@H](O)[C@@H]1O)Oc1ccccc1 [Remdesivir]
- toxic effect on Vero cells (Vero cells): no obvious toxic effect
- CC50 at 48 h [2]: > 50000 nM
- Ct Value 1 (novel coronavirus; [7]): 17.05
- Ct Value 2 (novel coronavirus; [7]): 16.86
- Ct Value 3 (novel coronavirus; [7]): 17.71
- Ct Value Mean (novel coronavirus; [7]): 17.21
- Ct Value 1 (novel coronavirus; Positive control group, 0.1 μM): 17.63
- Ct Value 2 (novel coronavirus; Positive control group, 0.1 μM): 17.75
- Ct Value 3 (novel coronavirus; Positive control group, 0.1 μM): 17.57
- Ct Value Mean (novel coronavirus; Positive control group, 0.1 μM): 17.65
- Ct Value 1 (novel coronavirus; Positive control group, 0.3 μM): 20.83
- Ct Value 2 (novel coronavirus; Positive control group, 0.3 μM): 20.76
- Ct Value 3 (novel coronavirus; Positive control group, 0.3 μM): 19.75
- Ct Value Mean (novel coronavirus; Positive control group, 0.3 μM): 20.45
- Ct Value 1 (novel coronavirus; Positive control group, 1 μM): 27.63
- Ct Value 2 (novel coronavirus; Positive control group, 1 μM): 26.97
- Ct Value 3 (novel coronavirus; Positive control group, 1 μM): 26.91
- Ct Value Mean (novel coronavirus; Positive control group, 1 μM): 27.17
- Ct Value 1 (novel coronavirus; Positive control group, 3 μM): 30.57
- Ct Value 2 (novel coronavirus; Positive control group, 3 μM): 33.96
- Ct Value 3 (novel coronavirus; Positive control group, 3 μM): 33.11
- Ct Value Mean (novel coronavirus; Positive control group, 3 μM): 32.55
- Ct Value 1 (novel coronavirus; Positive control group, 10 μM): 34.85
- Ct Value 2 (novel coronavirus; Positive control group, 10 μM): 33.56
- Ct Value 3 (novel coronavirus; Positive control group, 10 μM): 34.75
- Ct Value Mean (novel coronavirus; Positive control group, 10 μM): 34.39
- inhibition at 0.03 µM (novel coronavirus; Vero, Positive control group, 0.03 μM, read-out: Average inhibition rate (%)): 17.5%
- inhibition at 0.1 µM (novel coronavirus; Vero, Positive control group, 0.1 μM, read-out: Average inhibition rate (%)): 39.3%
- inhibition at 0.3 µM (novel coronavirus; Vero, Positive control group, 0.3 μM, read-out: Average inhibition rate (%)): 91.3%
- inhibition at 1 µM (novel coronavirus; Vero, Positive control group, 1 μM, read-out: Average inhibition rate (%)): 99.9%
- inhibition at 3 µM (novel coronavirus; Vero, Positive control group, 3 μM, read-out: Average inhibition rate (%)): 100%
- inhibition at 10 µM (novel coronavirus; Vero, Positive control group, 10 μM, read-out: Average inhibition rate (%)): 100%
- IC50 (novel coronavirus; Vero, positive control group): 120 nM
- inhibition against the virus (novel coronavirus; positive control group, concentrations of 0.3 µM and above): ≥ 90%

B1: IL29 control: IL29 wild-type protein, amino acid sequence SEQ ID NO: 1 with an additional M amino acid at the N-terminal (protein)
chain: KPTTTGKGCHIGRFKSLSPQELASFKKARDALEESLKLKNWSCSSPVFPGNWDLRLLQVRERPVALEAELALTLKVLEAAAGPALEDVLDQPLHTLHHILSQLQACIQPQPTAGPRPRGRLHHWLHRLQEAPKKESAGCLEASVTFNLFRLLTRDLKYVADGNLCLRTSTHPEST
modifications: additional N-terminal Met
- EC50 (HEK293-ISRE-Luc cells): 4.783 ng/mL
- Main peak (%), reversed-phase HPLC purity ([3]; Day 7): 56.70%
- Main peak (%), reversed-phase HPLC purity ([3]; Day 14): 34.46%
- Main peak (%), reversed-phase HPLC purity ([3]; Point 0): 85.82%
- Reduction on Day 14 as compared with Point 0 (%) [3]: 51.36%

B2: IL29DE (protein)
chain: MKPTTTGKGCHIGRFKSLSPQELASFKKARDALEESLKLKNWSCSSPVFPGNWDLRLLQVRERPVALEAELALTLKVLEAAAGPALEDVLDQPLHTLHHILSQLQACIQPQPTAGPRPRGRLHHWLHRLQEAPKKESAGCLEASVTFNLFRLLTRDLKYVAEGNLCLRTSTHPEST
- Relative biological activity (%) (HEK293-ISRE-Luc cells): 282%
- EC50 (HEK293-ISRE-Luc cells): 1.697 ng/mL
- EC50/biological activity as compared with IL29 control (in words) (HEK293-ISRE-Luc cells): increased by nearly three times
- Main peak (%), reversed-phase HPLC purity ([3]; Day 7): 89.35%
- Main peak (%), reversed-phase HPLC purity ([3]; Day 14): 77.39%
- Main peak (%), reversed-phase HPLC purity ([3]; Point 0): 92.68%
- Reduction on Day 14 as compared with Point 0 (%) [3]: 15.29%
- biological activity in 14 days at 50° C. [4]: basically unchanged

B3: IL29CS (protein)
chain: B2 chain with E162D, C166S
- Reverse-phase purity After nebulization [5]: 85.26%
- Reverse-phase purity Before nebulization ([5]; jet nebulizer, 2 ml sample): 96.65%
- Difference between purity before and after nebulization ([5]; reverse-phase purity): 10.39%
- EC50 (HEK293-ISRE-Luc cells): 4.639 ng/mL
- EC50/biological activity as compared with IL29 control (in words) (HEK293-ISRE-Luc cells): essentially no change
- Main peak (%), reversed-phase HPLC purity ([3]; Day 7): 64.66%
- Main peak (%), reversed-phase HPLC purity ([3]; Day 14): 46.20%
- Main peak (%), reversed-phase HPLC purity ([3]; Point 0): 97.03%
- Reduction on Day 14 as compared with Point 0 (%) [3]: 50.83%
- Ion exchange purity (%) ([6]; day 0): 97.00%
- Reversed-phase HPLC purity (%) ([6]; day 0): 95.361%
- Ion exchange purity (%) ([6]; day 5): 89.28%
- Reversed-phase HPLC purity (%) ([6]; day 5): 90.756%
- Ion exchange purity (%) ([6]; day 10): 77.14%
- Reversed-phase HPLC purity (%) ([6]; day 10): 84.30%
